Reference: patent publication US20240398757A1 (COCRYSTAL PHARMA, INC., priority 2022, published 2024)

target: T1, SARS2 protease (Severe acute respiratory syndrome coronavirus 2, UniProt P0DTD1); assay: SARS-CoV-2 protease inhibition assay (SARS2 FRET protease assay); type: biochemical; conditions: IC50 (μM), SARS2 protease 30 nM, peptide substrate 1.3 μM, 120 minutes at 37° C., compounds 20 μM to 0.075 nM
T1 construct: SARS2 protease was added to a final concentration of 30 nM

| Compound | IC50 |
| --- | --- |
| CCC(=O)OC([C@H](C[C@@H]1CCNC1=O)NC(=O)[C@H](CC1CCCCC1)NC(=O)O[C@H](c1ccccc1)C(F)(F)c1cccc(Cl)c1)S(=O)(=O)O (some centres unmarked) [Compound A212] | 4.15 µM |
| CCCC[C@H](NC(=O)O[C@@H](c1ccccc1)C(F)(F)c1cccc(Cl)c1)C(=O)N[C@@H](C[C@@H]1CCNC1=O)C(OC(=O)CC)S(=O)(=O)O (some centres unmarked) [Compound A213] | 5.02 µM |
| CCCC[C@H](NC(=O)O[C@H](c1ccccc1)C(F)(F)c1cccc(Cl)c1)C(=O)N[C@@H](C[C@@H]1CCNC1=O)C(OC(=O)CC)S(=O)(=O)O (some centres unmarked) [Compound A214] | 1.86 µM |
| CCCC[C@H](NC(=O)O[C@@H](c1ccccc1)C(C)(C)c1cccc(F)c1)C(=O)N[C@@H](C[C@@H]1CCNC1=O)C(=O)C(=O)NCC [Compound A215] | 1.01 µM |
| CCCC[C@H](NC(=O)O[C@H](c1ccccc1)C(C)(C)c1cccc(F)c1)C(=O)N[C@@H](C[C@@H]1CCNC1=O)C(=O)C(=O)NCC [Compound A216] | 0.006 µM |
| CCCC[C@H](NC(=O)O[C@@H](c1cccc(F)c1)C(F)(F)c1cccc(F)c1)C(=O)N[C@H](C=O)C[C@@H]1CCNC1=O [Compound A217] | 0.01 µM |
| CCCCC[C@H](NC(=O)O[C@H](c1ccccc1)C(F)(F)c1cccc(Cl)c1)C(=O)N[C@H](C=O)C[C@@H]1CCNC1=O [Compound A218] | 0.001 µM |
| O=C[C@H](C[C@@H]1CCNC1=O)NC(=O)[C@H](CCCF)NC(=O)OC(c1ccccc1)C(F)(F)c1cccc(Cl)c1 (some centres unmarked) [Compound A219] | 0.16 µM |
| CCNC(=O)C(=O)[C@H](C[C@@H]1CCNC1=O)NC(=O)[C@H](CC1CCCC1)NC(=O)O[C@@H](c1ccccc1)C(F)(F)c1cccc(Cl)c1 [Compound A220, (S)-2-(3-chlorophenyl)-2,2-difluoro-1-phenylethyl ((S)-3-cyclopentyl-1-(((S)-4-(ethylamino)-3,4-dioxo-1-((S)-2-oxopyrrolidin-3-yl)butan-2-yl)amino)-1-oxopropan-2-yl)carbamate] | 0.183 µM |
| CC(C)C[C@H](NC(=O)OC(C(C)C)C(F)(F)c1cccc(-c2ccccc2)c1)C(=O)N[C@H](C=O)C[C@@H]1CCNC1=O (stereo partly drawn) [Compound A222, 1-([1,1′-Biphenyl]-3-yl)-1,1-difluoro-3-methylbutan-2-yl ((S)-4-methyl-1-oxo-1-(((S)-1-oxo-3-((S)-2-oxopyrrolidin-3-yl)propan-2-yl)amino)pentan-2-yl)carbamate] | 0.003 µM |
| CC(C)C[C@H](NC(=O)O[C@@H](c1ccccc1)C(F)(F)c1cccc(F)c1)C(=O)N[C@H](C=O)C[C@@H]1CCNC1=O [Compound A223, (S)-2,2-difluoro-2-(3-fluorophenyl)-1-phenylethyl ((S)-4-methyl-1-oxo-1-(((S)-1-oxo-3-((S)-2-oxopyrrolidin-3-yl)propan-2-yl)amino)pentan-2-yl)carbamate] | 0.007 µM |
| CCCC[C@H](NC(=O)OC(c1ccccc1)C(F)(F)c1cccc(Cl)c1)C(=O)N[C@@H](C[C@@H]1CCNC1=O)C(=O)C(N)=O (stereo partly drawn) [Compound A224, 2-(3-chlorophenyl)-2,2-difluoro-1-phenylethyl ((S)-1-(((S)-4-amino-3,4-dioxo-1-((S)-2-oxopyrolidin-3-yl)butan-2-yl)amino)-1-oxohexan-2-yl) carbamate] | 0.0001 µM |
| CC(C)C[C@H](NC(=O)O[C@@H](C(C)C)C(F)(F)c1cccc(-c2ccccc2)c1)C(=O)N[C@@H](C[C@@H]1CCNC1=O)C(=O)C(=O)NC1CC1 [Compound A226, 1-([1,1′-biphenyl]-3-yl)-1,1-difluoro-3-methylbutan-2-yl ((S)-1-(((S)-4-(cyclopropylamino)-3,4-dioxo-1-((S)-2-oxopyrrolidin-3-yl)butan-2-yl)amino)-4-methyl-1-oxopentan-2-yl)carbamate] | 0.062 µM |
| O=C(N[C@@H](CCC(F)F)C(=O)N[C@@H](C[C@@H]1CCNC1=O)C(=O)C(=O)NC1CC1)O[C@@H](c1ccccc1)C(F)(F)c1cccc(Cl)c1 [Compound A227, (S)-2-(3-chlorophenyl)-2,2-difluoro-1-phenylethyl ((S)-1-(((S)-4-(cyclopropylamino)-3,4-dioxo-1-((S)-2-oxopyrrolidin-3-yl)butan-2-yl)amino)-5,5-difluoro-1-oxopentan-2-yl)carbamate] | 0.412 µM |
| CCC(=O)OC([C@H](C[C@@H]1CCNC1=O)NC(=O)[C@H](CC1CCCCC1)NC(=O)O[C@@H](c1ccccc1)C(F)(F)c1cccc(Cl)c1)S(=O)(=O)O (stereo partly drawn) [Compound A229, sodium (2S,6S,9S)-1-(3-chlorophenyl)-6-(cyclohexylmethyl)-1,1-difluoro-4,7,12-trioxo-9-(((S)-2-oxopyrrolidin-3-yl)methyl)-2-phenyl-3,11-dioxa-5,8-diazatetradecane-10-sulfonate] | ≥ 20 µM |
| O=C(N[C@@H](CC(F)F)C(=O)N[C@@H](C[C@@H]1CCNC1=O)C(=O)C(=O)NC1CC1)OC(c1ccccc1)C(F)(F)c1cccc(Cl)c1 (stereo partly drawn) [Compound A230, 2-(3-chlorophenyl)-2,2-difluoro-1-phenylethyl ((S)-1-(((S)-4-(cyclopropylamino)-3,4-dioxo-1-((S)-2-oxopyrrolidin-3-yl)butan-2-yl)amino)-4,4-difluoro-1-oxobutan-2-yl)carbamate] | 0.007 µM |
| CCCC[C@H](NC(=O)OC(c1ccccc1)C(F)(F)c1cccc(Cl)c1)C(=O)N[C@@H](C[C@@H]1CCNC1=O)C(=O)C(=O)NCCO (stereo partly drawn) [Compound A231, 2-(3-chlorophenyl)-2,2-difluoro-1-phenylethyl ((S)-1-(((S)-4-((2-hydroxyethyl)amino)-3,4-dioxo-1-((S)-2-oxopyrrolidin-3-yl)butan-2-yl)amino)-1-oxohexan-2-yl)carbamate] | 0.089 µM |
| O=C[C@H](C[C@@H]1CCNC1=O)NC(=O)[C@H](CC(F)F)NC(=O)OC(c1ccccc1)C(F)(F)c1cccc(Cl)c1 (stereo partly drawn) [Compound A232, 2-(3-chlorophenyl)-2,2-difluoro-1-phenylethyl ((S)-4,4-difluoro-1-oxo-1-(((S)-1-oxo-3-((S)-2-oxopyrrolidin-3-yl)propan-2-yl)amino)butan-2-yl)carbamate] | 0.022 µM |
| O=C(N[C@@H](CC1CCCCC1)C(=O)N[C@@H](C[C@@H]1CCNC1=O)C(O)S(=O)(=O)O)O[C@H](c1ccccc1)C(F)(F)c1cccc(F)c1 (stereo partly drawn) [Compound A233, sodium (2S)-2-((S)-3-cyclohexyl-2-((((R)-2,2-difluoro-2-(3-fluorophenyl)-1-phenylethoxy)carbonyl)amino)propanamido)-1-hydroxy-3-((S)-2-oxopyrrolidin-3-yl)propane-1-sulfonate] | 0.025 µM |
| CCC(C)C[C@H](NC(=O)OC(c1ccccc1)C(F)(F)c1cccc(Cl)c1)C(=O)N[C@H](C=O)C[C@@H]1CCNC1=O (some centres unmarked) [Compound A234] | 0.001 µM |
| O=C(N[C@@H](CC1CCCCC1)C(=O)N[C@@H](C[C@@H]1CCNC1=O)C(=O)C(=O)NC1CC1)O[C@@H](c1ccccc1)C(F)(F)c1cccc(F)c1 [Compound A236] | 0.817 µM |
| O=C(N[C@@H](CC1CCCCC1)C(=O)N[C@@H](C[C@@H]1CCNC1=O)C(=O)C(=O)NC1CC1)O[C@H](c1ccccc1)C(F)(F)c1cccc(F)c1 [Compound A237] | 0.003 µM |
| CCCC[C@H](NC(=O)OC(c1ccccc1)C(F)(F)c1cccc(Cl)c1)C(=O)N[C@@H](C[C@@H]1CCNC1=O)C(=O)c1nc2ccccc2s1 (stereo partly drawn) [Compound A238, 2-(3-chlorophenyl)-2,2-difluoro-1-phenylethyl ((S)-1-(((S)-1-(benzo[d]thiazol-2-yl)-1-oxo-3-((S)-2-oxopyrrolidin-3-yl)propan-2-yl)amino)-1-oxohexan-2-yl)carbamate] | 1.16 µM |
| CCNC(=O)C(=O)[C@H](C[C@@H]1CCNC1=O)NC(=O)[C@H](Cc1ccccc1)NC(=O)OC(c1ccccc1)C(F)(F)c1cccc(Cl)c1 (stereo partly drawn) [Compound A240, 2-(3-chlorophenyl)-2,2-difluoro-1-phenylethyl ((S)-1-(((S)-4-(ethylamino)-3,4-dioxo-1-((S)-2-oxopyrrolidin-3-yl)butan-2-yl)amino)-1-oxo-3-phenylpropan-2-yl)carbamate] | 0.638 µM |
| O=C(N[C@@H](Cc1ccccc1)C(=O)N[C@@H](C[C@@H]1CCNC1=O)C(=O)C(=O)NC1CC1)OC(c1ccccc1)C(F)(F)c1cccc(Cl)c1 (stereo partly drawn) [Compound A241, 2-(3-chlorophenyl)-2,2-difluoro-1-phenylethyl ((S)-1-(((S)-4-(cyclopropylamino)-3,4-dioxo-1-((S)-2-oxopyrrolidin-3-yl)butan-2-yl)amino)-1-oxo-3-phenylpropan-2-yl)carbamate] | 0.614 µM |
| CCCC(=O)OC([C@H](C[C@@H]1CCNC1=O)NC(=O)[C@H](CC1CCCCC1)NC(=O)O[C@@H](c1ccccc1)C(F)(F)c1cccc(Cl)c1)S(=O)(=O)O (stereo partly drawn) [Compound A242, sodium (2S,6S,9S)-1-(3-chlorophenyl)-6-(cyclohexylmethyl)-1,1-difluoro-4,7,12-trioxo-9-(((S)-2-oxopyrrolidin-3-yl)methyl)-2-phenyl-3,11-dioxa-5,8-diazapentadecane-10-sulfonate] | 1.2 µM |
| CCCC[C@H](NC(=O)O[C@H](c1ccccc1)C(F)(F)c1cccc(Cl)c1)C(=O)N[C@@H](C[C@@H]1CCNC1=O)C(=O)C(N)=O [Compound A248, (R)-2-(3-chlorophenyl)-2,2-difluoro-1-phenylethyl ((S)-1-(((S)-4-amino-3,4-dioxo-1-((S)-2-oxopyrrolidin-3-yl)butan-2-yl)amino)-1-oxohexan-2-yl)carbamate] | 0.0004 µM |
| CCCC[C@H](NC(=O)OC(c1ccccc1)C(F)(F)c1cccc(Cl)c1)C(=O)N[C@@H](C[C@@H]1CCNC1=O)C(=O)C(=O)O (stereo partly drawn) [Compound A250, (3S)-3-((2S)-2-(((2-(3-chlorophenyl)-2,2-difluoro-1-phenylethoxy)carbonyl)amino)hexanamido)-2-oxo-4-((S)-2-oxopyrrolidin-3-yl)butanoic acid] | 0.036 µM |
| CCCC[C@H](NC(=O)OC(c1cccnc1)C(F)(F)c1cccc(Cl)c1)C(=O)N[C@@H](C[C@@H]1CCNC1=O)C(=O)C(=O)NC1CC1 (some centres unmarked) [Compound A252] | 0.002 µM |
